Results as given in paper PMC7486443, “Generation of Phenothiazine with Potent Anti-TLK1 Activity for Prostate Cancer Therapy” (iScience, 2020).

How the values were obtained:
Test in all cases: biochemical
Design in all cases: DiscoverX KINOMEscan scanMAX competition binding panel, single concentration, percent of control; remaining binding: dose or concentration left out as unconfirmed
Details in all cases: KINOMEscan binding, percent of control; read-out: Table S4_SCANMAX REPORT - related to Fig. 1 / Percent Control
PIK3CA(E545A) = PIK3CA(E545A) (Homo sapiens, UniProt P42336, E545A)
RAF1 = RAF1 (Homo sapiens, UniProt P04049)
Sequence of RAF1 (P04049 whole entry): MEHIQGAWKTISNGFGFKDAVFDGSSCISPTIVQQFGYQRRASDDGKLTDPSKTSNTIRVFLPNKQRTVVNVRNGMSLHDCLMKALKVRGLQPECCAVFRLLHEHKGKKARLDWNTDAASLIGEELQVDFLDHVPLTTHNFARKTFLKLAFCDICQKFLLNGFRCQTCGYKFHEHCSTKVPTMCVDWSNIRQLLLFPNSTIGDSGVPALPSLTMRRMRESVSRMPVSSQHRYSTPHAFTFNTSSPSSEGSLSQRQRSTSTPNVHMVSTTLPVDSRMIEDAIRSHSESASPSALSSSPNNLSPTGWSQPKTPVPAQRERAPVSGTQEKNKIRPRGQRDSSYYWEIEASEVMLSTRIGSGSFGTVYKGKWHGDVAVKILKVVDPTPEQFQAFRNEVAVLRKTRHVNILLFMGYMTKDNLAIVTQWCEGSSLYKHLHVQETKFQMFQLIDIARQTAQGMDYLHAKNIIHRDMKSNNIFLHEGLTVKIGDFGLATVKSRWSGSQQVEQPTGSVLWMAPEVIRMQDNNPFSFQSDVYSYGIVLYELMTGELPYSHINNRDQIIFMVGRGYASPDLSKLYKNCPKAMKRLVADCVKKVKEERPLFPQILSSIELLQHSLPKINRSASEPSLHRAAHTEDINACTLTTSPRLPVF

[1] = target: T1, ABL1(M351T)-phosphorylated (Homo sapiens, UniProt P00519, M351T)
T1 construct: phosphorylated

MERTK = MERTK (Homo sapiens, UniProt Q12866)
Sequence of MERTK (Q12866 whole entry): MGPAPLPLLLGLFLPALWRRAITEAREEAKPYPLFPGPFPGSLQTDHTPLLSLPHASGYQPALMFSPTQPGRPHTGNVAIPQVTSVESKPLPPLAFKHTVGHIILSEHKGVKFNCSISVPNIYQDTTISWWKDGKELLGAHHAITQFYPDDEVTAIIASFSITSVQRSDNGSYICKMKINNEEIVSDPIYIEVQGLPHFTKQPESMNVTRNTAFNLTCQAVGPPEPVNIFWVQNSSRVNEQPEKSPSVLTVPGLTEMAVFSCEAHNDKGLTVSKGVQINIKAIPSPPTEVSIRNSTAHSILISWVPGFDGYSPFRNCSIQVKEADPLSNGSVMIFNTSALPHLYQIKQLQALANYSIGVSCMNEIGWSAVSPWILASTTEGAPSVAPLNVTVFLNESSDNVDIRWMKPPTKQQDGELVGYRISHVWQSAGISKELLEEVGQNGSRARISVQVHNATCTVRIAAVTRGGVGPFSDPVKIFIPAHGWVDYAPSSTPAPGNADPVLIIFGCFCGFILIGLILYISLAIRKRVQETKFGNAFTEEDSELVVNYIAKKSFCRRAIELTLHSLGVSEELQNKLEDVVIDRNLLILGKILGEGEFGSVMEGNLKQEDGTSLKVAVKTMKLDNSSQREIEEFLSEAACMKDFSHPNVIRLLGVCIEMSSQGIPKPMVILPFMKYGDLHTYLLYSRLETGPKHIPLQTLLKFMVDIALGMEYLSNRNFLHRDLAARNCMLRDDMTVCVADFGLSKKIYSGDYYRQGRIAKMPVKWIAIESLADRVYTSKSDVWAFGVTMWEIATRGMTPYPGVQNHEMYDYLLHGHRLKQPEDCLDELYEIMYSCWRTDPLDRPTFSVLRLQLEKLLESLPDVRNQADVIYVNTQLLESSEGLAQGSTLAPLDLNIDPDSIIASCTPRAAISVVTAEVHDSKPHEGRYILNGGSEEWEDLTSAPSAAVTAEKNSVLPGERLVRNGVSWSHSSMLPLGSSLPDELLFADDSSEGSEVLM

ERK5 = target: T2, ERK5 (Homo sapiens, UniProt Q13164)
T2 construct: gene MAPK7
T2 sequence (Q13164 whole entry): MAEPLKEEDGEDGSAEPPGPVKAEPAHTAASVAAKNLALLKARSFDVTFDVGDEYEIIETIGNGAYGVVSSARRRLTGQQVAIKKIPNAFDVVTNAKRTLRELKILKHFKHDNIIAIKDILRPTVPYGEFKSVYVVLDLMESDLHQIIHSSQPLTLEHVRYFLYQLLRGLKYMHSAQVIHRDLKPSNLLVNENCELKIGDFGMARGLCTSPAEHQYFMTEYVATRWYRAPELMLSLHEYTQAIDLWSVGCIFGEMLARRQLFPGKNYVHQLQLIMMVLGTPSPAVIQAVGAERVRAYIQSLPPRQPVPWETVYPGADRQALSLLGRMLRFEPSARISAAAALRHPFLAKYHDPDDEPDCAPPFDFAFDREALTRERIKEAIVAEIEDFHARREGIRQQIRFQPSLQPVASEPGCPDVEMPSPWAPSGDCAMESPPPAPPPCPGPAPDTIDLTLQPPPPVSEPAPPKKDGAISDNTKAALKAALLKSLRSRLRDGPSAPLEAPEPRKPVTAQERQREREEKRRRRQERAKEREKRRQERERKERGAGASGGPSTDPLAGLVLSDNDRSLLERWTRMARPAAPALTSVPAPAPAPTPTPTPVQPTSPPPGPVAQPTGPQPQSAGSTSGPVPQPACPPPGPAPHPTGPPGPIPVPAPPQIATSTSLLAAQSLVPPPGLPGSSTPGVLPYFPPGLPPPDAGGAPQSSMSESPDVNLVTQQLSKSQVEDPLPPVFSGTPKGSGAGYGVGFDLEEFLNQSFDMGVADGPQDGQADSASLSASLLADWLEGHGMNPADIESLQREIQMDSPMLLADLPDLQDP

TAK1 = target: T3, TAK1 (Homo sapiens, UniProt O43318)
T3 construct: gene MAP3K7

WEE1 = WEE1 (Homo sapiens, UniProt P30291)
CDC2L2 = target: T4, CDC2L2 (Homo sapiens, UniProt Q9UQ88)
T4 construct: gene CDK11A

CAMK2A = CAMK2A (Homo sapiens, UniProt Q9UQM7)
Sequence of CAMK2A (Q9UQM7 whole entry): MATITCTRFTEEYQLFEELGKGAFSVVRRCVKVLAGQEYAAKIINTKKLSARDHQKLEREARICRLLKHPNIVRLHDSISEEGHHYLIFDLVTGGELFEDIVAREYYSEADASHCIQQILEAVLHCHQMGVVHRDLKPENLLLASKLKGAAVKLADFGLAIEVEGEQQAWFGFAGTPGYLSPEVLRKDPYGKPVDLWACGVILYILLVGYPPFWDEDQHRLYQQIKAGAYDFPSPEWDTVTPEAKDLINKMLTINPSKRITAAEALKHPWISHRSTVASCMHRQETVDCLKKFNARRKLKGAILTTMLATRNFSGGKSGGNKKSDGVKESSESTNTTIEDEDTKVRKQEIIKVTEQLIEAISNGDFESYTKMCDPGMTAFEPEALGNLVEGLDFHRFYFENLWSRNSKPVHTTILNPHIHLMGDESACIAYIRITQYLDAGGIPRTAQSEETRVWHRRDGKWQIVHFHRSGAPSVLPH

PHKG2 = PHKG2 (Homo sapiens, UniProt P15735)
Sequence of PHKG2 (P15735 whole entry): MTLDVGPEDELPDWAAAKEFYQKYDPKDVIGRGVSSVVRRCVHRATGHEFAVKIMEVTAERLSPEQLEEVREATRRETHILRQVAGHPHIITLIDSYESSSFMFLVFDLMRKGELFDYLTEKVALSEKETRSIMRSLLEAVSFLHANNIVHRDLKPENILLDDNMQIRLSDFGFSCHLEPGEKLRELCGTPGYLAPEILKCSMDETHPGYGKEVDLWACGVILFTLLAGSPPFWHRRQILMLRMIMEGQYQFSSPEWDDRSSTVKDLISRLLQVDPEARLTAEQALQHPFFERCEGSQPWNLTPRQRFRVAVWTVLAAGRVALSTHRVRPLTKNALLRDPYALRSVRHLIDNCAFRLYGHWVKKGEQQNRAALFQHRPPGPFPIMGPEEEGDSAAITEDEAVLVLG

STK35 = STK35 (Homo sapiens, UniProt Q8TDR2)
Sequence of STK35 (Q8TDR2 whole entry): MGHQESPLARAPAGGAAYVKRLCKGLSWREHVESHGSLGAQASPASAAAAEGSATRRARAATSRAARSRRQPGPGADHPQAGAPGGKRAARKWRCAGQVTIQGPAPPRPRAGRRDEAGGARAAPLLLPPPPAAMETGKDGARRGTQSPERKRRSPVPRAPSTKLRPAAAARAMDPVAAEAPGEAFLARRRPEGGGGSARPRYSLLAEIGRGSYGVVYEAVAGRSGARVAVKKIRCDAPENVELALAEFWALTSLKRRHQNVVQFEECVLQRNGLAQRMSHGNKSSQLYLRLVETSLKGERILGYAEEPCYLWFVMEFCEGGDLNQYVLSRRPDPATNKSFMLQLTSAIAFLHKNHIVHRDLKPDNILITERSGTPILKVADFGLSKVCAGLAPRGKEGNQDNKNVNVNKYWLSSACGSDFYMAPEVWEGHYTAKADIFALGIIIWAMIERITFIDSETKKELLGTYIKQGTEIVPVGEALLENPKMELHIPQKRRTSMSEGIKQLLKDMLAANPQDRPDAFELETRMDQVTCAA

CDKL1 = CDKL1 (Homo sapiens, UniProt Q00532)
Sequence of CDKL1 (Q00532 whole entry): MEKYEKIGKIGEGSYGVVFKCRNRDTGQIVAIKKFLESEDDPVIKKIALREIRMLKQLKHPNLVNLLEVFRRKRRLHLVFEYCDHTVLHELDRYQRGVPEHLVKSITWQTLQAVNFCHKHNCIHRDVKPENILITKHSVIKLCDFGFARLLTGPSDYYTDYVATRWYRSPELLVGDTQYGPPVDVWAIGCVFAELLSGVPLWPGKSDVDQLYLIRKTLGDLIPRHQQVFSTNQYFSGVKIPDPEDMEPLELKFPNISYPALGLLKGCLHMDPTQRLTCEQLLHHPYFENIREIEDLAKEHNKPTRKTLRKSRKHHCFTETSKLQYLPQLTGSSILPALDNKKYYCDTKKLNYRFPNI

FLT1 = FLT1 (Homo sapiens, UniProt P17948)
MLK2 = target: T5, MLK2 (Homo sapiens, UniProt Q02779)
T5 construct: gene MAP3K10

RET = RET (Homo sapiens, UniProt P07949)
[2] = target: T6, ABL1(F317I)-nonphosphorylated (Homo sapiens, UniProt P00519, F317I)
T6 construct: nonphosphorylated

PDGFRB = PDGFRB (Homo sapiens, UniProt P09619)
NIM1 = target: T7, NIM1 (Homo sapiens, UniProt Q8IY84)
T7 construct: gene NIM1K
T7 sequence (Q8IY84 whole entry): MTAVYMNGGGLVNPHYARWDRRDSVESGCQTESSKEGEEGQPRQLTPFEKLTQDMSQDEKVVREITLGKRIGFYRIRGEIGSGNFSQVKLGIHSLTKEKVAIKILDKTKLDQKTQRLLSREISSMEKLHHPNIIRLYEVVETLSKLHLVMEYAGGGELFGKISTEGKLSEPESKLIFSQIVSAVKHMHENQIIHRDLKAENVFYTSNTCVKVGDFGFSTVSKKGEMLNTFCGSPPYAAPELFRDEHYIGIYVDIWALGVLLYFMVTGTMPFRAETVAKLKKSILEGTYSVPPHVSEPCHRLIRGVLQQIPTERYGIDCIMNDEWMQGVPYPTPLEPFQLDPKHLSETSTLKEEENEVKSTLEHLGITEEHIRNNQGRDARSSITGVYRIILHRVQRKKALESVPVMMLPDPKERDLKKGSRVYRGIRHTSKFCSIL

Question: How did the remaining binding (PIK3CA(E545A)) turn out when `c1ccc2c(c1)Sc1ccccc1N2CCN1CCOCC1` [J54] was run?
Answer: The remaining binding was 97%.

Question: What about the remaining binding (RAF1) of the same compound?
Answer: The remaining binding was 100%.

Question: And the remaining binding [1]?
Answer: The remaining binding was 100%.

Question: What about the remaining binding (MERTK) of the same compound?
Answer: The remaining binding was 100%.

Question: What about the remaining binding (ERK5) of the same compound?
Answer: The remaining binding was 100%.

Question: What about the remaining binding (TAK1) of the same compound?
Answer: The remaining binding was 97%.

Question: And the remaining binding (WEE1)?
Answer: The remaining binding was 78%.

Question: And the remaining binding (CDC2L2)?
Answer: The remaining binding was 100%.

Question: And the remaining binding (CAMK2A)?
Answer: Its remaining binding is 78%.

Question: And the remaining binding (PHKG2)?
Answer: The remaining binding was 94%.

Question: What about the remaining binding (STK35) of the same compound?
Answer: Its remaining binding is 82%.

Question: And the remaining binding (CDKL1)?
Answer: Its remaining binding is 79%.

Question: And the remaining binding (FLT1)?
Answer: Its remaining binding is 98%.

Question: What about the remaining binding (MLK2) of the same compound?
Answer: The remaining binding was 97%.

Question: What about the remaining binding (RET) of the same compound?
Answer: The remaining binding was 98%.

Question: What about the remaining binding [2] of the same compound?
Answer: The remaining binding was 92%.

Question: And the remaining binding (PDGFRB)?
Answer: The remaining binding was 100%.

Question: What about the remaining binding (NIM1) of the same compound?
Answer: Its remaining binding is 100%.
